Measured values from a compilation of properties of binary mixtures (doi:10.1016/j.molliq.2022.119052).

Assay: xn = mol fraction of the nth substance listed
Conditions: 100 kPa, x1 = 0.333

SMILES	viscosity (298.15 K)	viscosity (313.15 K)	viscosity (323.15 K)	viscosity (333.15 K)	viscosity (303.15 K)
CC[n+]1ccn(C)c1.[Cl-] + OCC(O)CO	156.4 mPa·s	85.1 mPa·s	58.5 mPa·s	41.2 mPa·s	–
Cn1cc[nH+]c1.[Cl-] + OCC(O)CO	–	–	49.1 mPa·s	–	103.1 mPa·s
CCn1cc[nH+]c1.[Cl-] + OCC(O)CO	79.9 mPa·s	45.3 mPa·s	32 mPa·s	23 mPa·s	–
